Results from ChEMBL document CHEMBL3853266, “A complex game of hide and seek: the search for new antifungals” (Medchemcomm, 2016).
Converted amounts (≈) assume the structure as drawn.

Assay: Antifungal activity against Candida albicans clinical isolate by serial twofold dilution microtitre plate method
Type: functional

MIC: 1 µg/mL (≈ 2.42 µM)
Structure (SMILES): COc1ccc2oc(=O)sc2c1C(=O)/C=C/c1ccc(OCCCN(C)C)cc1
